This experiment has as its target TGR25-GFP fusion protein (UniProt P42212+Q86Y34, F64L/I167T/S65C). The experiment in a line: Internalization of the TGR25-GFP fusion protein expressed on CHO cells (confocal microscope). Type of experiment: cell-based, human. The following applies: 100 μM AM251, 45 minutes, 37° C.

The structures appear in SMILES notation.

For the compound `Cc1c(C(=O)NN2CCCCC2)nn(-c2ccc(Cl)cc2Cl)c1-c1ccc(I)cc1` [AM251, 1-(2,4-dichlorophenyl)-5-(4-iodophenyl)-4-methyl-N-piperidin-1-yl-1H-pyrazole-3-carboxamide], the “localization of the TGR25-GFP fusion protein (internalization)” value is reported as “moved in part to the cytoplasm”.

The values above are taken from patent US7927821B2, “Methods of screening for compounds which bind G protein-coupled receptors” (Takeda Pharmaceutical Company Limited, priority 2004, dated 2011).
